According to paper PMC10671360, “In Silico and In Vitro Study towards the Rational Design of 4,4′-Disarylbisthiazoles as a Selective α-Synucleinopathy Biomarker” (International Journal of Molecular Sciences, 2023):
Entries after “also recorded” stand apart in the source; their conditions may differ.

Columns and labels:
[1] = molecular target: T1, recombinant α-syn fibrils (Homo sapiens, UniProt P37840); experiment: Competition binding assay against [^3H]PiB, α-syn fibrils; details: for Selectivity Aβ/α-syn / Selectivity tau/α-syn: ratio of Ki, [^3H]PiB was used
T1 construct: made in house

tau fibrils = tau fibrils (Homo sapiens, UniProt P10636); experiment: Competition binding assay against [^3H]PiB, tau fibrils
Protocol: Recombinant tau monomer (R&D systems, Minneapolis, MN, USA) was dissolved in 20 mM of Tris HCl, pH 8.0, 100 mM of NaCl, 25 μM of low-MW heparin, and 0.5 mM of dithiothreitol to a final concentration of 300 µg/mL. The mixture was incubated with shaking at 900 rpm at 37 °C for 48 h. To separate the non-aggregated monomers from the formed fibrils, the reaction mixture was centrifuged at 12,000× g for 5 min, and the resulting pellet was washed three times with 500 μL of 20 mM Tris-HCl, pH 7.4. The supernatants from the three centrifugation steps were combined, and the concentration of the monomer in the resulting supernatant was determined in a BCA assay(Thermo Fisher Scientific, Waltham, MA, USA) (with a BSA standard curve). Determination of the concentration of fibrils formed was carried out by subtracting the amount of tau peptide monomer in the supernatant from the initial amount used for fibrillation. The pellets of the fibrils obtained above (Section 4.2.1) were resuspended in 20 mM of Tris-HCl, pH 7.4 and diluted as needed for the binding assays. A fixed concentration of [^3H]DCVJ (10 nM) and α-synuclein aggregates (125 nM), prepared as described above (Section 4.2.3), was used with different final concentrations of the DABTAs from 0.01 to 100 nM (see SI Figure S1). The experiment was carried out in quintuplicate for each concentration. The mixture was incubated for 2 h in a final volume of 200 μL per well after dilution with 20 mM of Tris-HCl, pH 7.4. The incubated mixtures were filtered through a Perkin Elmer GF/B glass filter via a TOMTEC cell harvester and immediately washed thrice with 1 mL of deionized water. The filters containing the bound ligands were dried and afterwards mixed with 3 mL of BetaPlate Scint solution (Perkin Elmer Life Sciences, Waltham, MA, USA) and left there for 2 h before counting in a Wallac 1450 MicroBeta TriLux Liquid Scintillation Counter (PerkinElmer Life Sciences, Waltham, MA, USA). For the determination of the inhibition constants, data were analyzed using GraphPad Prism software (version 7.0) to obtain IC50 values by fitting the data to the equation Y = bottom + (top − bottom)/(1 + 10(x − log IC50)). Ki values were calculated from IC50 values using the equation Ki = IC50/(1 + [radioligand]/Kd). […] Further protocol was carried out as for [^3H]DCVJ (see SI Figure S3). […] Further procedures followed the same already described in Section 4.2.3.1 (See SI Figure S4).

Aβ1−42 fibrils = molecular target: T2, Aβ1−42 fibrils (Homo sapiens, UniProt P05067); experiment: Competition binding assay against [^3H]PiB, Aβ1−42 fibrils; details: read-out: Ki Aβ
T2 construct: 1 mg of β-amyloid1–42 peptide (Abcam, Cambridge, UK); purchased Abcam
Protocol: After the dissolution of 1 mg of β-amyloid1–42 peptide (Abcam, Cambridge, UK) in 50 μL of DMSO, 925 μL of Milli-Q® water was added to it, and the mixture was stirred. Finally, 25 μL of 1M Tris HCl, pH 7.4 was added to bring the final peptide concentration to 1 mg/mL. The mixture was then left to incubate at 37 °C for 30 h with shaking at 900 rpm. To separate the non-aggregated monomers from the formed fibrils, the reaction mixture was centrifuged at 12,000× g for 5 min, and the resulting pellet was washed three times with 500 μL of 20 mM Tris-HCl, pH 7.4. The supernatants from the three centrifugation steps were combined, and the concentration of the monomer in the resulting supernatant was determined in a BCA assay (Thermo Fisher Scientific, Waltham, MA, USA) (with a BSA standard curve). Determination of the concentration of fibrils formed was carried out by subtracting the amount of β-amyloid1−42 peptide monomer in the supernatant from the initial amount used for fibrillation.
(§1) The pellets of the fibrils obtained above (Section 4.2.1) were resuspended in 20 mM of Tris-HCl, pH 7.4 and diluted as needed for the binding assays.
(§2) A fixed concentration of [^3H]DCVJ (10 nM) and α-synuclein aggregates (125 nM), prepared as described above (Section 4.2.3), was used with different final concentrations of the DABTAs from 0.01 to 100 nM (see SI Figure S1). The experiment was carried out in quintuplicate for each concentration. The mixture was incubated for 2 h in a final volume of 200 μL per well after dilution with 20 mM of Tris-HCl, pH 7.4. The incubated mixtures were filtered through a Perkin Elmer GF/B glass filter via a TOMTEC cell harvester and immediately washed thrice with 1 mL of deionized water. The filters containing the bound ligands were dried and afterwards mixed with 3 mL of BetaPlate Scint solution (Perkin Elmer Life Sciences, Waltham, MA, USA) and left there for 2 h before counting in a Wallac 1450 MicroBeta TriLux Liquid Scintillation Counter (PerkinElmer Life Sciences, Waltham, MA, USA). For the determination of the inhibition constants, data were analyzed using GraphPad Prism software (version 7.0) to obtain IC50 values by fitting the data to the equation Y = bottom + (top − bottom)/(1 + 10(x − log IC50)). Ki values were calculated from IC50 values using the equation Ki = IC50/(1 + [radioligand]/Kd). […] Further protocol was carried out as for [^3H]DCVJ (see SI Figure S3).
Further procedures followed the same already described in Section 4.2.3.1 (See SI Figure S4).

[2] = molecular target: T1, recombinant α-syn fibrils; experiment: Competition binding assay against [^3H]DCVJ, α-syn fibrils; details: for Selectivity Aβ/α-syn / Selectivity tau/α-syn: ratio of Ki, [^3H]DCVJ was used; for Ki: [^3H]DCVJ was used (10 nM), α-synuclein aggregates 125 nM
Protocol: The incubation of purified recombinant α-synuclein monomer (10 mg/mL) obtained as described by Uzuegbunam was carried out in PBS (pH 7.4) at 37 °C. The solution was left shaking at 900 rpm in an Eppendorf Thermomixer for up to 84 h. Determination of the concentration of the formed fibrils (α-syn) was carried out following the centrifugation of the reaction vial at 12,000× g for 5 min. The pellet obtained was washed thrice with 20 mM of Tris-HCl, pH 7.4. The supernatants from the three centrifugation steps were combined, and the concentration of the monomer in the resulting supernatant was determined in a BCA assay (Thermo Fisher Scientific, Waltham, MA, USA) (with a BSA standard curve). Determination of the concentration of α-syn was carried out by subtracting the amount of α-synuclein monomer in the supernatant from the initial amount used for fibrillation.
as §1, §2

[3] = Solubility in the incubation medium of the binding assays; assay type: physicochemical; details: incubation buffer of the binding assays

T2 sequence (P05067 672-713): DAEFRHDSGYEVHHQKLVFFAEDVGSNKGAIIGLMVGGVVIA
tau fibrils, sequence (P10636 2-758): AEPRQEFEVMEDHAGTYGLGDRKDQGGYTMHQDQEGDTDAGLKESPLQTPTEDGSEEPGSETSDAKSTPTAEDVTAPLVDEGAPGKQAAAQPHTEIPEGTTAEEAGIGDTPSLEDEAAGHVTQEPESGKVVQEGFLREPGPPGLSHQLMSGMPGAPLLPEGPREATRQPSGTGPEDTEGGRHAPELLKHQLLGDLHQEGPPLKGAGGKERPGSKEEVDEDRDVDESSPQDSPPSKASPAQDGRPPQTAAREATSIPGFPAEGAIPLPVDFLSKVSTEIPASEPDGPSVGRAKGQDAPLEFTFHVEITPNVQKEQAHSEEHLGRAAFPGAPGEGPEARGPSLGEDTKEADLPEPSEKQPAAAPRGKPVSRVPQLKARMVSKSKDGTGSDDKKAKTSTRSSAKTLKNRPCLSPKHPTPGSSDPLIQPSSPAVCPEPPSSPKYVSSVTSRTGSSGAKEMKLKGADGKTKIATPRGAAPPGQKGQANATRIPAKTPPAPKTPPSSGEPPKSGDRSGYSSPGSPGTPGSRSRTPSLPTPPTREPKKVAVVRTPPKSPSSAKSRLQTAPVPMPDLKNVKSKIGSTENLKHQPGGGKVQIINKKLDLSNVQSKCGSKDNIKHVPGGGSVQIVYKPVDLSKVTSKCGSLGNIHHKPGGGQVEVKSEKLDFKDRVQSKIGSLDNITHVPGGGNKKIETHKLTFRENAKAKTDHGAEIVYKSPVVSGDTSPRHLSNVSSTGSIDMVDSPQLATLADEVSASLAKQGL

In the case of `COc1cnc(-c2csc(-c3nc(-c4ccc5c(c4)OCO5)cs3)n2)nc1` [f15, 4-(Benzo[d][1,3]dioxol-5-yl)-4′-(5-methoxypyrimidin-2-yl)-2,2′-bithiazole], the Ki [1] is reported as 2.45 nM, the “Selectivity Aβ/α-syn” value [1] is reported as 24.2 and the “Selectivity tau/α-syn” value [1] is reported as 288.6. For the same compound, the Ki (tau fibrils) was 707 nM and the Ki (Aβ1−42 fibrils) was 59.3 nM.
For `COc1ccc(-c2csc(-c3nc(-c4cnc5c(c4)OCO5)cs3)n2)cc1F` [d4, 6-(4′-(3-Fluoro-4-methoxyphenyl)-[2,2′-bithiazol]-4-yl)-[1,3]dioxolo[4,5-b]pyridine], the Ki [1] was 2.56 nM, the “Selectivity Aβ/α-syn” value [1] was 34.1 and the “Selectivity tau/α-syn” value [1] was 142.2. For the same compound, the “Selectivity Aβ/α-syn” value [2] was 417.1, the “Selectivity tau/α-syn” value [2] was greater than 1515.2 and the Ki (tau fibrils) was 364 nM. The Ki (Aβ1−42 fibrils) was 87.4 nM.
With `FCCOCCOCCOc1ccc(-c2csc(-c3nc(-c4cnc5c(c4)OCO5)cs3)n2)cc1F` [f10, 6-(4′-(3-Fluoro-4-(2-(2-(2-fluoroethoxy)ethoxy)ethoxy)phenyl)-[2,2′-bithiazol]-4-yl)-[1,3]dioxolo[4,5-b]pyridine] the Ki [1] was 0.93 nM, the “Selectivity Aβ/α-syn” value [1] was 40.1 and the Ki [2] was 1 nM. It also gave a Ki (tau fibrils) of 615 nM and a Ki (Aβ1−42 fibrils) of 37.3 nM.
For `COc1ccc(-c2csc(-c3nc(-c4cnc5c(c4)OCO5)cs3)n2)cc1OCCOCCF` [f9, 6-(4′-(3-(2-(2-Fluoroethoxy)ethoxy)-4-methoxyphenyl)-[2,2′-bithiazol]-4-yl)-[1,3]dioxolo [4,5-b]pyridine], the Ki [1] was 0.96 nM, the “Selectivity Aβ/α-syn” value [1] was 49.6 and the “Selectivity tau/α-syn” value [1] was 1177.1. For the same compound, the Ki [2] was 0.84 nM, the Ki (tau fibrils) was 1130 nM and the Ki (Aβ1−42 fibrils) was 47.6 nM.
With `COc1ccc(-c2csc(-c3nc(-c4ccc5c(c4)OCO5)cs3)n2)cc1OCCOCCOCCF` [f14, 4-(Benzo[d][1,3]dioxol-5-yl)-4′-(3-(2-(2-(2-fluoroethoxy)ethoxy)ethoxy)-4-methoxyphenyl)-2,2′-bithiazole] the Ki [1] was 1.74 nM, the “Selectivity Aβ/α-syn” value [1] was 120.8 and the “Selectivity tau/α-syn” value [1] was 380.6. The Ki (tau fibrils) was 662 nM and the Ki (Aβ1−42 fibrils) was 210 nM.
In the case of `COc1ccc(-c2csc(-c3nc(-c4cnc5c(c4)OCO5)cs3)n2)cc1` [f17, 6-(4′-(4-Methoxyphenyl)-[2,2′-bithiazol]-4-yl)-[1,3]dioxolo[4,5-b]pyridine], the Ki [1] is reported as 1.78 nM, the “Selectivity Aβ/α-syn” value [1] is reported as 94.1 and the “Selectivity tau/α-syn” value [1] is reported as 288.0. The Ki (tau fibrils) was 513 nM and the Ki (Aβ1−42 fibrils) was 167 nM.
For `FCCOCCOc1cnc(-c2csc(-c3nc(-c4cnc5c(c4)OCO5)cs3)n2)nc1` [f8, 6-(4′-(5-(2-(2-Fluoroethoxy)ethoxy)pyrimidin-2-yl)-[2,2′-bithiazol]-4-yl)-[1,3]dioxolo[4,5-b]pyridine], the Ki [1] was 2.3 nM and the “solubility in the incubation medium” value [3] was “low solubility; also recorded: decreased solubility”.
With `ICCOCCOCCOc1cnc(-c2csc(-c3nc(-c4cnc5c(c4)OCO5)cs3)n2)nc1` [h13, 6-(4′-(5-(2-(2-(2-Iodoethoxy)ethoxy)ethoxy)pyrimidin-2-yl)-[2,2′-bithiazol]-4-yl)-[1,3]dioxolo[4,5-b]pyridine] the Ki [1] was 1.17 nM and the “solubility in the incubation medium” value [3] was “low solubility; also recorded: decreased solubility”.
For `FCCOc1ccc(-c2csc(-c3nc(-c4ccc5c(c4)OCO5)cs3)n2)cc1` [f11, 4-(Benzo[d][1,3]dioxol-5-yl)-4′-(4-(2-fluoroethoxy)phenyl)-2,2′-bithiazole], the Ki [1] was 3.71 nM, the “Selectivity Aβ/α-syn” value [1] was 26.9 and the Ki (tau fibrils) was 499 nM. The Ki (Aβ1−42 fibrils) was 99.6 nM.
In the case of `FCCOCCOCCOc1ccc(-c2csc(-c3nc(-c4cnc5c(c4)OCO5)cs3)n2)cc1` [f12, 6-(4′-(4-(2-(2-(2-Fluoroethoxy)ethoxy)ethoxy)phenyl)-[2,2′-bithiazol]-4-yl)-[1,3]dioxolo[4,5-b]pyridine], the Ki [1] is reported as 0.92 nM, the “Selectivity Aβ/α-syn” value [1] is reported as 42.1 and the “Selectivity tau/α-syn” value [1] is reported as 1068.5. For the same compound, the Ki (tau fibrils) was 983 nM and the Ki (Aβ1−42 fibrils) was 38.7 nM.
With `COc1ccc(-c2csc(-c3nc(-c4ccc5c(c4)OCO5)cs3)n2)cc1F` [d2, 4-(Benzo[d][1,3]dioxol-5-yl)-4′-(3-fluoro-4-methoxyphenyl)-2,2′-bithiazole] the Ki [1] was 2.32 nM, the “Selectivity Aβ/α-syn” value [1] was 63.4 and the “Selectivity tau/α-syn” value [1] was 293.4. The “Selectivity Aβ/α-syn” value [2] was 198.1, the “Selectivity tau/α-syn” value [2] was greater than 819.7 and the Ki (tau fibrils) was 681 nM. For the same compound, the Ki (Aβ1−42 fibrils) was 147 nM.
For `FCCOCCOCCOc1cnc(-c2csc(-c3nc(-c4ccc5c(c4)OCO5)cs3)n2)nc1` [f7, 4-(Benzo[d][1,3]dioxol-5-yl)-4′-(5-(2-(2-(2-fluoroethoxy)ethoxy)ethoxy)pyrimidin-2-yl)-2,2′-bithiazole], the Ki [1] was 1.17 nM, the “Selectivity Aβ/α-syn” value [1] was 65.3 and the “Selectivity tau/α-syn” value [1] was 206.9. It also gave a Ki [2] of 1.51 nM, a Ki (tau fibrils) of 242 nM and a Ki (Aβ1−42 fibrils) of 76.4 nM.
For `FCCOCCOc1ccc(-c2csc(-c3nc(-c4cnc5c(c4)OCO5)cs3)n2)c(OCCOCCF)c1` [f20, 6-(4′-(2,4-Bis(2-(2-fluoroethoxy)ethoxy)phenyl)-[2,2′-bithiazol]-4-yl)-[1,3]dioxolo[4,5-b]pyridine], the Ki [1] was 1.31 nM, the “Selectivity Aβ/α-syn” value [1] was 168.9 and the “Selectivity tau/α-syn” value [1] was 621.8. The Ki (tau fibrils) was 815 nM and the Ki (Aβ1−42 fibrils) was 221 nM.
With `FCCOCCOCCOc1cnc(-c2csc(-c3nc(-c4cnc5c(c4)OCO5)cs3)n2)nc1` [f13, 6-(4′-(5-(2-(2-(2-Fluoroethoxy)ethoxy)ethoxy)pyrimidin-2-yl)-[2,2′-bithiazol]-4-yl)-[1,3]dioxolo[4,5-b]pyridine] the Ki [1] was 0.38 nM, the “Selectivity Aβ/α-syn” value [1] was 122.6 and the “Selectivity tau/α-syn” value [1] was 315.8. For the same compound, the Ki (tau fibrils) was 120 nM and the Ki (Aβ1−42 fibrils) was 46.6 nM.
In the case of `COc1ccc(-c2csc(-c3nc(-c4cnc5c(c4)OCO5)cs3)n2)c(OC)c1` [f19, 6-(4′-(2,4-Dimethoxyphenyl)-[2,2′-bithiazol]-4-yl)-[1,3]dioxolo[4,5-b]pyridine], the Ki [1] is reported as 1.35 nM, the “Selectivity Aβ/α-syn” value [1] is reported as 110.1 and the “Selectivity tau/α-syn” value [1] is reported as 497.3. The Ki (tau fibrils) was 671 nM and the Ki (Aβ1−42 fibrils) was 149 nM.
